Reference: patent US20110305784A1, “Fractionated products obtained from gamboge resin, and medical uses of the same” (priority 2010, published 2011)
≈ marks a conversion by molar mass, not a printed value. Marks after values point to notes of the source that are not given here.

Columns and labels:
male Wistar rats [1] = experiment: In vivo anti-inflammation test of formulation TSB-9-W1 (carrageenan hind paw edema); conditions: aspirin oral 150 mg/Kg, three hours after carrageenan injection
Procedure: Briefly, male Wistar rats with a weight of around 160±5 g were randomly divided into four groups (n=5 for each group) including two experimental groups ([…]1-1 group and TSB-9-W1-2 group) and two control groups (i.e., a vehicle normal control group and an aspirin positive control group). […] Three hours after the intraplantar injection, the volumes of the left and right hind paws of each rat were measured using a plethysmometer (#7150, UGO Basile, Italy) including a water cell (a diameter of 25 mm; #7157, UGO Basile, Italy), and the hind paw edema volume was expressed as the difference between the measured volumes of the left and right hind paws. […] D=(E-F)/E×100 (2) wherein D=inhibition rate of hind paw edema, • E=the average value of the hind paw edema volumes in the vehicle normal control group of rats, and • F=the average value of the hind paw edema volumes in each group of rats.

male Wistar rats [2] = experiment: In vivo anti-inflammation test of the fractionated products TSB-14A to TSB-14E (carrageenan hind paw edema); conditions: aspirin positive control, oral, three hours after carrageenan injection
Procedure: Briefly, male Wistar rats with a weight of around 160±5 g were randomly divided into four groups (n=5 for each group) including two experimental groups (i.e., TSB-9-W1-1 group and TSB-9-W1-2 group) and two control groups (i.e., a vehicle normal control group and an aspirin positive control group). After overnight fasting, the rats in the TSB-9-W1-1 and the TSB-9-W1-2 groups were orally administered with the formulation TSB-9-W1 at a dose of 10 mg/Kg and a dose of 30 mg/Kg, respectively, the rats in the vehicle normal control group were orally administered with 2% Tween 80 at a dosing volume of 10 mL/Kg, and the rats in the aspirin positive control group were orally administered with aspirin at a dose of 150 mg/Kg. One hour later, 0.1 mL of a 1% carrageenan suspension was intraplantarly injected into the right hind paws of rats in each group. Three hours after the intraplantar injection, the volumes of the left and right hind paws of each rat were measured using a plethysmometer (#7150, UGO Basile, Italy) including a water cell (a diameter of 25 mm; #7157, UGO Basile, Italy), and the hind paw edema volume was expressed as the difference between the measured volumes of the left and right hind paws. Inhibition rate (%) of hind paw edema in each group of rats was calculated using the following Equation (2): […]

in vitro = conditions: human
From the text: (§1) The in vitro anti-cancer test was primarily used to detect the effect of a candidate drug on cancer cell proliferation. The working principle involved therein is the ability of viable cells to shift alamarBlue (AbD Serotec, UK) from its originally non-fluorescent oxidized state (non-fluorescent, blue) to a reduced form (fluorescent, red) having fluorescence via metabolic reaction. According to the fluorescent data result generated by the alamarBlue reagent thus obtained, the proliferation of the viable cells and cell activity can be quantified for detection.
(§2) In the in vitro anti-cancer tests, a candidate drug was tested at 5 different concentrations of 0.01, 0.1, 1, 10, and 100 μg/ml, and six human cancer cell lines and a normal human cell line were used (see Table 10).

[3] = system: Human breast adenocarcinoma cell MCF7; experiment: cells; conditions: for IC50: MCF7, read-out: IC50 (50% inhibition concentration); for CC50: MCF7, read-out: LC50 (50% lethal concentration)
From the text: as §1, §2

[4] = system: Human colon adenocarcinoma cell HT-29; experiment: cells; conditions: for IC50: HT-29, read-out: IC50 (50% inhibition concentration); for CC50: HT-29, read-out: LC50 (50% lethal concentration)
From the text: as §1, §2

[5] = system: Human hepatocellular carcinoma cell HepG2; experiment: cells; conditions: for IC50: HepG2, read-out: IC50 (50% inhibition concentration); for CC50: HepG2, read-out: LC50 (50% lethal concentration)
From the text: as §1, §2

[6] = system: Human histocytic lymphoma cell U937; experiment: cells; conditions: for IC50: U-937, read-out: IC50 (50% inhibition concentration); for CC50: U-937, read-out: LC50 (50% lethal concentration)
From the text: as §1, §2

[7] = system: Human lung carcinoma cell A549; experiment: cells; conditions: for IC50: A549, read-out: IC50 (50% inhibition concentration); for CC50: A549, read-out: LC50 (50% lethal concentration)
From the text: as §1, §2

[8] = system: Human promyelocytic leukemia cell HL-60; experiment: cells; conditions: for IC50: HL-60, read-out: IC50 (50% inhibition concentration); for CC50: HL-60, read-out: LC50 (50% lethal concentration)
From the text: as §1, §2

[9] = system: Human umbilical venal epithelial cell (HUVEC); experiment: cells; conditions: Homo sapiens, HUVEC, read-out: IC50 (50% inhibition concentration)
From the text: as §1, §2

male CD-1 (Crl.) mice [10] = experiment: In vivo analgesia test of formulation TSB-9-W (formalin, hind paw licking); conditions: morphine oral 30 mg/Kg
Procedure: The formulation TSB-9 was milled to obtain a formulation TSB-9-W having a particle size of around 10 μm, and an in vivo analgesia test of the formulation TSB-9-W was performed by the MDS Pharma Services.
Briefly, male CD-1 (Crl.) mice were randomly divided into three groups (n=5 for each group) including an experimental group (i.e., TSB-9-W group) and two control groups (i.e., a vehicle normal control group and a morphine positive control group). The mice in the TSB-9-W group were orally administered with the formulation TSB-9-W at a dose of 100 mg/Kg, the mice in the vehicle normal control group were orally administered with 2% Tween 80 at a dosing volume of 10 mL/Kg, and the mice in the morphine positive control group were orally administered with morphine at a dose of 30 mg/Kg. One hour later, 0.02 mL of a 2% formalin solution was subplantarly injected into the hind paws of mice in each group, and the hind paw licking times for each mouse were counted at the time intervals of 0-5 minutes and 15-30 minutes after formalin injection. Inhibition rate (%) of hind paw licking in each group of mice was calculated using the following Equation (1):
wherein A=inhibition rate of hind paw licking (%), • B=the average value of the hind paw licking times in the vehicle normal control group of mice, and • C=the average value of the hind paw licking times in each group of mice.

male CD-1 (Crl.) mice [11] = experiment: In vivo analgesia test of the fractionated products TSB-14A to TSB-14E (formalin, hind paw licking); parameters: concentration or dose not given beside the values; conditions: morphine positive control, oral
[12] = 0-5 minutes after formalin injection

| SMILES | CC50 (in vitro) [µg/mL] | IC50 [3] [µg/mL] | CC50 [3] [µg/mL] | IC50 [4] [µg/mL] | CC50 [4] [µg/mL] | IC50 [5] [µg/mL] | CC50 [5] [µg/mL] | IC50 [6] [µg/mL] | CC50 [6] [µg/mL] | IC50 [7] [µg/mL] | CC50 [7] [µg/mL] | IC50 [8] [µg/mL] | CC50 [8] [µg/mL] | IC50 [9] [µg/mL] | other results |
| --- | --- | --- | --- | --- | --- | --- | --- | --- | --- | --- | --- | --- | --- | --- | --- |
| CC(=O)Oc1ccccc1C(=O)O [Aspirin, aspirin] |  |  |  |  |  |  |  |  |  |  |  |  |  |  | Inhibition rate of hind paw edema (%) (male Wistar rats [1]): 40* %; Inhibition rate of hind paw edema (%) (male Wistar rats [2]): 37* % |
| CC(C)=CCc1c2c(c(O)c3c1O[C@]14C(=C[C@@H]5CC1C(C)(C)OC4(C/C=C(/C)C(=O)O)C5=O)C3=O)C=C[C@@](C)(C/C=C/C(C)(C)O)O2 [Gh-3272, formoxanthone H] | 2.5 (≈ 3.88 µM) | 0.73 (≈ 1.13 µM) | 2.8 (≈ 4.34 µM) | 0.36 (≈ 0.558 µM) | 6.6 (≈ 10.2 µM) | 1.2 (≈ 1.86 µM) | 3.7 (≈ 5.74 µM) | 0.16 (≈ 0.248 µM) | 0.43 (≈ 0.667 µM) | 1.7 (≈ 2.64 µM) | 4.7 (≈ 7.29 µM) | 1.7 (≈ 2.64 µM) | 5.1 (≈ 7.91 µM) | 0.12 (≈ 0.186 µM) |  |
| C=C(C)C(O)CC[C@]1(C)C=Cc2c(O)c3c(c(CC=C(C)C)c2O1)O[C@]12C(=C[C@@H]4CC1C(C)(C)OC2(C/C=C(/C)C(=O)O)C4=O)C3=O (some centres unmarked) [Gh-3291, formoxanthone D] | 1.4 (≈ 2.17 µM) | 0.45 (≈ 0.698 µM) | 2.8 (≈ 4.34 µM) | 0.081 (≈ 0.126 µM) | 4.7 (≈ 7.29 µM) | 0.65 (≈ 1.01 µM) | 8.7 (≈ 13.5 µM) | 0.22 (≈ 0.341 µM) | 0.61 (≈ 0.946 µM) | 0.62 (≈ 0.962 µM) | 3.3 (≈ 5.12 µM) | 4.5 (≈ 6.98 µM) | 30 (≈ 46.5 µM) | 0.34 (≈ 0.527 µM) |  |
| CC(C)=CCC[C@@]1(C)C=Cc2c(O)c3c(c(C(O)C4OC4(C)C)c2O1)O[C@]12C(=C[C@@H]4CC1C(C)(C)OC2(C/C=C(/C)C(=O)O)C4=O)C3=O (some centres unmarked) [Gh-3311, epiformoxanthone G] | 13.9 (≈ 21 µM) | 8 (≈ 12.1 µM) | 14 (≈ 21.2 µM) | 7.9 (≈ 12 µM) | 38 (≈ 57.5 µM) | 7.9 (≈ 12 µM) | 25.6 (≈ 38.7 µM) | 1.9 (≈ 2.88 µM) | 5.4 (≈ 8.17 µM) | 5 (≈ 7.57 µM) | 21.2 (≈ 32.1 µM) | 1.4 (≈ 2.12 µM) | 2.2 (≈ 3.33 µM) | 4 (≈ 6.05 µM) |  |
| CC(C)=CCc1c2c(c(O)c3c1O[C@]14C(=C[C@@H]5CC1C(C)(C)OC4(C/C=C(\C)C(=O)O)C5=O)C3=O)C=CC(C)(C/C=C\C(C)(C)O)O2 (some centres unmarked) [Gh-3332, isoformoxanthone I] | 3.3 (≈ 5.12 µM) | 0.87 (≈ 1.35 µM) | 3.3 (≈ 5.12 µM) | 0.85 (≈ 1.32 µM) | 73.8 (≈ 114 µM) | 6.7 (≈ 10.4 µM) | 19.6 (≈ 30.4 µM) | 0.23 (≈ 0.357 µM) | 1.4 (≈ 2.17 µM) | 1.3 (≈ 2.02 µM) | 4.6 (≈ 7.13 µM) | 11.8 (≈ 18.3 µM) | 30.5 (≈ 47.3 µM) | 0.11 (≈ 0.171 µM) |  |
| CC(C)=CCC[C@@]1(C)C=Cc2c(O)c3c(c(CC4OC4(C)C)c2O1)O[C@]12C(=C[C@@H]4CC1C(C)(C)OC2(C/C=C(/C)C(=O)O)C4=O)C3=O (some centres unmarked) [Gh-3351, epiformoxanthone E] | 3.3 (≈ 5.12 µM) | 0.99 (≈ 1.54 µM) | 3.8 (≈ 5.89 µM) | 1.9 (≈ 2.95 µM) | 72.6 (≈ 113 µM) | 2.9 (≈ 4.5 µM) | 31.2 (≈ 48.4 µM) | 0.24 (≈ 0.372 µM) | 0.62 (≈ 0.962 µM) | 0.77 (≈ 1.19 µM) | 3.4 (≈ 5.27 µM) | 11.7 (≈ 18.1 µM) | 22.1 (≈ 34.3 µM) | 0.11 (≈ 0.171 µM) |  |
| CC(C)=CCC[C@]1(C)C=Cc2c(O)c3c(c(CC4OC4(C)C)c2O1)O[C@]12C(=C[C@@H]4CC1C(C)(C)OC2(C/C=C(/C)C(=O)O)C4=O)C3=O (some centres unmarked) [Gh-3352, formoxanthone E] | 0.85 (≈ 1.32 µM) | 0.075 (≈ 0.116 µM) | 1.8 (≈ 2.79 µM) | 0.18 (≈ 0.279 µM) | 0.68 (≈ 1.05 µM) | 0.16 (≈ 0.248 µM) | 2 (≈ 3.1 µM) | 0.11 (≈ 0.171 µM) | 0.26 (≈ 0.403 µM) | 0.18 (≈ 0.279 µM) | 0.99 (≈ 1.54 µM) | 0.26 (≈ 0.403 µM) | 0.93 (≈ 1.44 µM) | 0.084 (≈ 0.13 µM) |  |
| CC(C)=CCC[C@]1(C)C=Cc2c(O)c3c(c(C(O)C4OC4(C)C)c2O1)O[C@]12C(=C[C@@H]4CC1C(C)(C)OC2(C/C=C(/C)C(=O)O)C4=O)C3=O (some centres unmarked) [Gh-3353, formoxanthone G] | 8.4 (≈ 12.7 µM) | 2.4 (≈ 3.63 µM) | 9.6 (≈ 14.5 µM) | 5 (≈ 7.57 µM) | 20.8 (≈ 31.5 µM) | 5.3 (≈ 8.02 µM) | 35.5 (≈ 53.7 µM) | 4.8 (≈ 7.26 µM) | 14.6 (≈ 22.1 µM) | 2.6 (≈ 3.93 µM) | 8.2 (≈ 12.4 µM) | 1.3 (≈ 1.97 µM) | 2.4 (≈ 3.63 µM) | 5.5 (≈ 8.32 µM) |  |
| CN1CC[C@]23c4c5ccc(O)c4O[C@H]2[C@@H](O)C=C[C@H]3[C@H]1C5 [Morphine, morphine] |  |  |  |  |  |  |  |  |  |  |  |  |  |  | Inhibition rate of hind paw licking (%) (male CD-1 (Crl.) mice [10]; [12]): 100* %; Inhibition rate of hind paw licking (%) (male CD-1 (Crl.) mice [10]; 15-30 minutes after formalin injection): 100* %; Inhibition rate of hind paw licking (%) (male CD-1 (Crl.) mice [11]; [12]): 62* %; Inhibition rate of hind paw licking (%) (male CD-1 (Crl.) mice [11]; 10-15 minutes after formalin injection): 89* %; Inhibition rate of hind paw licking (%) (male CD-1 (Crl.) mice [11]; 15-20 minutes after formalin injection): 81* %; Inhibition rate of hind paw licking (%) (male CD-1 (Crl.) mice [11]; 20-25 minutes after formalin injection): 68* %; Inhibition rate of hind paw licking (%) (male CD-1 (Crl.) mice [11]; 25-30 minutes after formalin injection): 0% |
